In patent US20240279602A1, “METHOD FOR PRODUCING CEREBRAL CORTICAL CELL PREPARATION DERIVED FROM HUMAN PLURIPOTENT STEM CELLS” (Kyoto University, priority 2021, published 2024):

Test system: cerebral organoids
Test: Immunostaining of cell aggregates after DAPT treatment
Type: cell-based, human
Description: Organoids were fixed with 4% paraformaldehyde for 30 minutes, subjected to dehydration reaction with 30% (w/v) sucrose in PBS, and embedded with O.C.T. compound (Sakura Finetek Japan Co., Ltd.). Frozen sections were prepared in a thickness of 16 μm by using a cryostat (CM1850, Leica Biosystems Nussloch GmbH). Permeabilization was performed with 0.3% or 2% (v/v) Triton-X100, and, as necessary, antigen retrieval reaction was performed. Blocking was performed with Block ACE (KAC Co., Ltd.), and double- or triple-label staining was then performed. Primary antibodies and secondary antibodies for use in immunostaining were diluted to recommended concentrations before use.
As illustrated by a scheme shown in FIG. 11(A), in step (ii), cerebral organoids were screened on day 33 after the initiation of induction of differentiation (Day 33), the culture medium was replaced with one obtained by adding 10 μM DAPT to the culture medium in step (2b), and suspension culture was performed at 37° C. under 5% CO2 for 3 days. As a result, cerebral cortical cell aggregates were obtained.
The cerebral cortical cell aggregates (Day 36) and high-purity cerebral cortical cell aggregates (Day 40) were further immunostained for the cortical layer V/VI progenitor cell (deep layer) marker Ctip2, the telencephalon marker Foxg1, the neural stem cell (radial glia) marker […], and the proliferative cell marker Ki67.
Organoids on Day 25, Day 32, Day 39, and Day 72 (the periods of induction of differentiation: about 4 weeks, 5 weeks, 6 weeks, and 10 weeks, respectively) were cultured in the presence or absence of DAPT for 3 days, and the organoids on Day 28 (4 wk), Day 42 (6 wk), and Day 75 (10 wk) were analyzed for different markers by immunostaining. […] Satb2 is a cortical layer II-IV progenitor cell (upper layer) marker.

[1] = organoids Day 33, 10 μM DAPT for 3 days, Day 36
[2] = organoids in week 4 to week 6, DAPT for 3 days

## C[C@H](NC(=O)Cc1cc(F)cc(F)c1)C(=O)N[C@H](C(=O)OC(C)(C)C)c1ccccc1 [DAPT, N-[N-(3,5-difluorophenacetyl)-L-alanyl]-S-phenylglycine t-butyl ester]
[1]
  cerebral cortex-like layered structure (immunostaining): no cerebral cortex-like layered structure was found
  expression of Ki67 (immunostaining): almost no expression
[2]
  number of Ctip2/Bf1-co-positive cells: increased number
  number of Ki67-positive cells: decreased number
Organoids in week 10, DAPT for 3 days
  proportion of Ctip2-positive cells and that of Satb2-positive cells: no significant change
